Experimental data from patent US20240174684A1, “INHIBITORS OF cGAS ACTIVITY AS THERAPEUTIC AGENTS” (BELLBROOK LABS, LLC, priority 2021, published 2024).
Values after ≈ are worked out from the molar mass of the structure shown. Like-named read-outs stand apart in the source and are kept apart here.

Assays:
MDR1 (P-glycoprotein) = experiment: MDCK-MDR1 permeability A→B; type: in vitro ADME, Canine; details: dog; MDCK cells expressing human MDR1, A→B; read-out: MDCK-MDR Permeability A→B
Outline: (§1)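 Permeability measured apical-to-basolateral in MDCK cells expressing human MDR1, reported as binned ranges in cm/s×10^−6. Metabolic stability determined as half-life in mouse and human hepatocytes, reported as binned ranges in minutes.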

[1] = Metabolic stability in mouse hepatocytes; type: in vitro ADME; details: read-out: Mouse MS Stability t1/2
Experimental: (§2) ADME studies: Compound A and the compounds of the disclosure were tested for aqueous solubility (KSOL), metabolic stability (human and mouse […]) and permeability (Caco-2 and/or MDR1-MDCK cells) to provide an initial indication of oral bioavailability.
(§3) The favorable physicochemical properties are reflected in promising results in in vitro ADME tests. […] Metabolic stability, which was routinely measured with mouse and human hepatocytes, is outstanding, with t, greater than 2 hours for all of the compounds of the disclosure in which it has been measured. Cell permeability was measured using MDCK cells expressing human MDR1 (P-glycoprotein) to assess passive permeability as well as active transport out of the cell. […] Numerous compounds in Table 1 meet these permeability criteria, which is consistent with their design for TPSA <140 Å^2 and increased lipophilicity.
(§4) The MDCK-MDR1 permeability A ->B is shown in Table 2 below, where A represents 5-10 cm/s×10^−6; B represents 1-5 cm/s×10^−6; and C represents <1 cm/ss×10^−6. The metabolic stability half time, in both mouse and human hepatocytes, is also shown in Table 2 below, where A′ represents 100-200 minutes; B′ represents 200-300 minutes; and C′ represents >300 minutes.

[2] = Kinetic aqueous solubility (KSOL) in PBS, pH 7.4; type: physicochemical; details: aqueous buffer, kinetic from dmso stock
Experimental: as §2, §3

cGAS [3] = molecular target: T1, cGAS (Homo sapiens, UniProt Q8N884); experiment: Transcreener cGAS enzymatic assay (FP); type: biochemical
T1 sequence (Q8N884 whole entry): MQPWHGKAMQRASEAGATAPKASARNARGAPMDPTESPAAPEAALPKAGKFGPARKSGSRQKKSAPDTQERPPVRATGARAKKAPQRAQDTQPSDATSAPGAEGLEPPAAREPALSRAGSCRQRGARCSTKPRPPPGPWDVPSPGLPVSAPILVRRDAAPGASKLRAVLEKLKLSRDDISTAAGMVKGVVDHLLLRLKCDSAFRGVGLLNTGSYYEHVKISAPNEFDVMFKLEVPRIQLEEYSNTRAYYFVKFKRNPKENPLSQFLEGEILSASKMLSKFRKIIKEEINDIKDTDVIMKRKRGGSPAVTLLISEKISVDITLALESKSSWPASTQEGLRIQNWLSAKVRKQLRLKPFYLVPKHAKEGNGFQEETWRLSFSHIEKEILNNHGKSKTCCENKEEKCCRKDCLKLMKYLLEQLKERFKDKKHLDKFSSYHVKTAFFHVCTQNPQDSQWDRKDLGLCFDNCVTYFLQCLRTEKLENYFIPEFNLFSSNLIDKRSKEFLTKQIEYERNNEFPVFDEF
Outline: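 Human cGAS (30 nm) inhibition, 60 min reactions, FP read-out, standard conditions 100 μM ATP and GTP plus 62.5 nM bp ISD. Also run at 1 mM ATP and GTP (physiological), with 200 μM MnCl2, and with mouse cGAS under standard conditions; IC50 reported.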

mouse cGAS = mouse cGAS (Mus musculus, UniProt Q8C6L5); experiment: Transcreener cGAS enzymatic assay with mouse cGAS; type: biochemical; details: standard conditions, read-out: IC50 with mcGAS
Chain of mouse cGAS (Q8C6L5 whole entry): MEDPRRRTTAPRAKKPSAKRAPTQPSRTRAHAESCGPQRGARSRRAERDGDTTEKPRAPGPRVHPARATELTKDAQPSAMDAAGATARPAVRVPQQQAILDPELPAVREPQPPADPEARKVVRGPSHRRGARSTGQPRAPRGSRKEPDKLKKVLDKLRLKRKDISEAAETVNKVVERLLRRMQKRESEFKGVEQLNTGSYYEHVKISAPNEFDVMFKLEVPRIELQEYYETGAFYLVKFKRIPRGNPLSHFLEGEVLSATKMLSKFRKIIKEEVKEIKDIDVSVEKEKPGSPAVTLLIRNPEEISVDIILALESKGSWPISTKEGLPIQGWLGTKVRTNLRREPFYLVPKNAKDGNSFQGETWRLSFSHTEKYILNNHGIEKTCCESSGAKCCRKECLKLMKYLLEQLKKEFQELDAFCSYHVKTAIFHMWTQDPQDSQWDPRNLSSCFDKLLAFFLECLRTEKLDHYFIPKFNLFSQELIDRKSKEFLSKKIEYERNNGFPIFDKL
Experimental: Structural, biochemical and biophysical analysis and selectivity profiling: Potency and MOA studies, including Mn^2+ sensitivity, were performed using the Transcreener cGAS enzymatic assay, which is manufactured at BellBrook Labs (Fitchburg, Wisconsin, USA). This homogenous cGAS enzymatic assay was developed with fluorescence polarization (FP) and time-resolved Forster resonance energy transfer (TR-FRET) readouts, as described in International Patent Publication WO 2020/142729, incorporated by reference herein in its entirety. Plates are read on a PHERAstar FSX multimode reader (BMG). The compounds of the disclosure were tested for inhibition of cGAS ([…]) using this cGAS enzymatic assay under standard conditions (100 μM ATP and GTP, 62.5 nM bp ISD, 60 minute reactions), high ATP and GTP (1 mM) to mimic physiological conditions, in the presence of 200 μM MnCl2, and with mouse cGAS under standard conditions.
Potency with mcGAS is important for vivo efficacy studies and represents a challenge for lead development because mcGAS shares only 57% amino acid identity with human enzyme and there are significant functional differences.

[4] = test system: IFNβ production in THP-1 cells; experiment: IFNβ ELISA in THP-1 cells; type: cell-based, human; details: for IC50: Homo sapiens, THP-1 cells
Outline: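 THP-1 cells stimulated with dsDNA or cGAMP (STING activation bypassing cGAS) in the presence of compound; IFNβ secreted into medium quantified by ELISA. IC50 values reported in potency bins.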

cGAS [5] = molecular target: T1, cGAS; experiment: Cellular thermal shift assay (CETSA) in THP-1 cells; type: cell-based; details: heat treatment 51.5 °C
Experimental: Panel A is an image of a western blot of the stabilization measure; panel B is a bar graph of the stabilization measure. Heat treatment was conducted at 51.5 ° C.
(§5) CETSA was also used to confirm that the compounds are binding to cGAS in cells; THP-1 cells are used for this analysis. Compounds were tested in dose response mode by incubating with cells for 1.5 hours at 37° C., followed by pelleting and re-suspending in PBS, heating to 51.5° C. for 3 min and cooling to room temp. Cells were then lysed, debris, including denatured cGAS, was pelleted and the supernatant was analyzed for soluble cGAS by Western Blot using anti-cGAS primary Ab (Cell Signaling). Band intensity was analyzed using Image J software. Stimulation with cGAMP directly activates STING, circumventing cGAS; this was used to determine if compounds had effects on downstream components of cGAS/STING signaling. The IFN-6 ELISA was used as the primary measure of cellular potency and selectivity (Table 3) and used the reporter gene assays for assessing off-target activity with other pattern recognition receptors.

RIG-1 signaling = experiment: Reporter gene assay IRF30Luc (RIG-1); type: cell-based; details: concentrations as high as 100 μM
Experimental: as §5
(§6) The reporter gene assays were used to assess off-target activity with IRF30Luc (RIG-1) or NFKB (TLR4); CellTiter Glo (ATP levels) and Presto Blue (reducing equivalents) were used to assess cytotoxicity; all assays were performed in dose response mode. […] The inventors recently began using human PBMCs to assess cellular potency in a more physiologically relevant context.

TLR4 pathway = experiment: Reporter gene assay NFKB (TLR4); type: cell-based; details: concentrations as high as 100 μM
Experimental: as §5, §6

[6] = Cytotoxicity, CellTiter Glo (ATP levels) and Presto Blue (reducing equivalents); type: cell-based; details: concentrations as high as 100 μM
Experimental: as §6

[7] = test system: isolated Luc reporter enzyme; experiment: Isolated Luc reporter enzyme inhibition; type: biochemical; details: at 80 μM
[8] = molecular target: isolated SEAP reporter enzyme (Homo sapiens, UniProt P05187); experiment: Isolated SEAP reporter enzyme inhibition; type: biochemical
Chain of isolated SEAP reporter enzyme (P05187 23-511 limits assumed): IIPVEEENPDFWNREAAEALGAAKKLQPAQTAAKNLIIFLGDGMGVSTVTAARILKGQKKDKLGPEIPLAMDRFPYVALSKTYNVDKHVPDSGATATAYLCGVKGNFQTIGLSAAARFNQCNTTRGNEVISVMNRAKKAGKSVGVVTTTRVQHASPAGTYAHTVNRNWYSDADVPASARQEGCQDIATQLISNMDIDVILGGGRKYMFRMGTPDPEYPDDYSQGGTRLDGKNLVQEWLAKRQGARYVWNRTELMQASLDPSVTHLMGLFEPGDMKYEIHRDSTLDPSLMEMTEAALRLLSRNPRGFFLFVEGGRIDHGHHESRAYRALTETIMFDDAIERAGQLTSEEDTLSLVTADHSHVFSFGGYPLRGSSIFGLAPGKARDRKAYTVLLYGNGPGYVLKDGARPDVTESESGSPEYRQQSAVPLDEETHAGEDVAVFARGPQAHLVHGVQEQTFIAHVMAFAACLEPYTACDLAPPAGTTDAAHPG

[9] = Metabolic stability in human hepatocytes; type: in vitro ADME; details: read-out: Human MS Stability t1/2
Experimental: as §2, §3, §4

[10] = test system: IFN-β production in PBMCs; experiment: IFNβ ELISA in human primary PBMCs; type: cell-based; details: PBMC
Source text: Cellular assays: The human monocyte cell line THP-1 and human primary PBMCs were used to evaluate the cellular activity of compounds with good biochemical potency. These cells produce a robust cGAS/STING-dependent type I IFN response when stimulated with dsDNA and other pathogen-associated molecular patterns, which was detected using a standard ELISA for IFNβ (R&D Systems). The TBK1 inhibitor, BX-795, which acts downstream of cGAS/STING, was used as a probe.
The ICso values for IFNB ELISA stimulated with THP-1, PBMC, DNA, and cGAMP were determined for several exemplary compounds of the invention, and are provided in Table 3 where A represents <1 μM; B represents 1-2.5 μM; C represents 2.5-10 μM; D represents 10-20 μM; and E represents >20 μM.
as §6

[11] = test system: MDCK cells expressing human MDR1 (P-glycoprotein); experiment: MDCK-MDR1 permeability A→B; type: in vitro ADME, Canine
Outline: as §1

[12] = Metabolic stability in mouse liver microsomes; type: in vitro ADME; details: read-out: Mouse MS Stability t1/2
Experimental: as §2, §4

[13] = Metabolic stability in human liver microsomes; type: in vitro ADME; details: read-out: Human MS Stability t1/2
Experimental: as §2, §4

[14] = high ATP and GTP (1 mM) to mimic physiological conditions, read-out: IC50 FP Physiological
[15] = standard conditions: 100 μM ATP and GTP, 62.5 nM bp ISD, 60 minute reactions, read-out: IC50 FP Standard

Row | Structure (SMILES) | Papp A→B (MDR1 (P-glycoprotein)) [×10⁻⁶ cm/s] | half-life [1] [h] | solubility kinetic [2] [µM] | IC50 (cGAS [3]; [14]) [nM] | IC50 (cGAS [3]; [15]) [nM] | IC50 (mouse cGAS) [nM] | IC50 [4] [nM] | Stabilization of cGAS in cells (CETSA) (cGAS [5]) | Inhibition of RIG-1 signaling (RIG-1 signaling) | Inhibition of TLR4 signaling (TLR4 pathway) | Cytotoxicity [6] | Inhibition of isolated Luc [7] [%] | Inhibition of isolated SEAP reporter enzyme [8] | half-life ([1]; given as number) [h] | half-life [9] [h] | Cellular IC50 relative to biochemical IC50 ([4]; cellular assays vs cGAS enzymatic assay at 1 mM ATP/GTP) | IC50 [10] [nM] | MDCK-MDR Permeability A→B [11] | half-life [12] [h] | half-life [13] [h]
1 | Cc1nc(N2C[C@@H](CC(=O)Nc3ccc4ncsc4c3)C[C@H]2C(=O)O)c2oc3ccccc3c2n1 [Compound 4, (2S,4R)-4-(2-(benzo[d]thiazol-6-ylamino)-2-oxyethyl)-1-(2-methylbenzofuro[3,2-d]pyrimidin-4-yl)pyrrolidine-2-carboxylic acid] | 1 to 5 | 1.67 to 3.33 | 488 (≈ 238 µg/mL) | < 200 | 50 to 100 | 8300 | > 20000 | stabilized cGAS | no detectable inhibition | no detectable inhibition | no cytotoxicity | 50 | appreciably |  |  |  |  |  |  | 
2 | Cc1nc(N2C[C@@H](CC(=O)Nc3ccc(-c4ccccc4)c(C(F)(F)F)c3)C[C@H]2C(=O)O)c2oc3ccccc3c2n1 [Compound 63, (2S,4R)-1-(2-methylbenzofuro[3,2-d]pyrimidin-4-yl)-4-(2-oxo-2-((2-(trifluoromethyl)-[1,1′-biphenyl]-4-yl)amino)ethyl)pyrrolidine-2-carboxylic acid] | 1 to 5 |  | 570 (≈ 327 µg/mL) | 200 to 500 | 100 to 200 |  | < 1000 |  |  |  |  |  |  | > 6 | 1.67 to 3.33 | essentially identical | 1000 to 2500 |  |  | 
3 | Cc1nc(N2C[C@@H](CC(=O)Nc3ccncc3)C[C@H]2C(=O)O)c2oc3ccccc3c2n1 [Compound A, (2S,4R)-1-(2-methylbenzofuro[3,2-d]pyrimidin-4-yl)-4-(2-oxo-2-(pyridine-4-ylamino)ethyl)pyrrolidine-2-carboxylic acid, reference compound] |  |  | 542 (≈ 234 µg/mL) |  |  |  | > 20000 |  |  |  |  |  |  |  |  |  |  | C (C represents <1 cm/ss×10^−6) | 1.67 to 3.33 | 1.67 to 3.33
